Measurements from PubChem BioAssay (NCI).
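Results reflect a 48-hour exposure of cells in 96-well plates to compound at five concentrations. GI50 = concentration required for 50% inhibition of growth. At the TGI there is no net growth.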

Experiments:
Assay in all cases: NCI anticancer screen, dose series, 48 h
[1] = system: IGROV1 ovarian
[2] = system: HT29 colon
[3] = system: CCRF-CEM leukemia
[4] = system: SF-268 CNS
[5] = system: MOLT-4 leukemia
[6] = system: SNB-75 CNS
[7] = system: OVCAR-5 ovarian
[8] = system: OVCAR-4 ovarian
[9] = system: SK-MEL-5 melanoma
[10] = system: MALME-3M melanoma

CCCCCCCC(=O)OC[n+]1cccc(-c2c(COC(=O)NC(C)C)c(COC(=O)NC(C)C)c3n2CCC3)c1
TGI [1]: > 100 µM | TGI [2]: > 100 µM | TGI [3]: > 84 µM | TGI [4]: > 100 µM | TGI [5]: 99.4 µM | TGI [6]: > 100 µM | TGI [7]: > 100 µM | TGI [8]: > 100 µM | TGI [9]: > 100 µM | TGI [10]: > 100 µM

Nc1cccc(C(=O)/C=C/c2ccccc2O)c1
TGI [1]: > 100 µM | TGI [2]: > 100 µM | TGI [3]: > 100 µM | TGI [4]: > 100 µM | TGI [5]: > 100 µM | TGI [6]: > 100 µM | TGI [7]: > 100 µM | TGI [9]: > 100 µM | TGI [10]: > 100 µM

Cc1cccc(NC(=O)CSc2nnc(-c3ccc(N=Cc4ccc(Cl)cc4)cc3)o2)c1
TGI [2]: > 100 µM | TGI [3]: > 100 µM | TGI [4]: > 100 µM | TGI [5]: > 100 µM | TGI [6]: > 100 µM | TGI [8]: > 100 µM | TGI [9]: > 100 µM | TGI [10]: > 100 µM

O=C(Cc1csc2nc(-c3ccc(Br)cc3)cn12)N/N=C/c1ccccc1O
GI50 [1]: 1.04 µM | TGI [1]: 11.5 µM | GI50 [2]: 5.97 µM | TGI [2]: 19.2 µM | GI50 [3]: 1.81 µM | TGI [3]: 8.41 µM | GI50 [4]: > 100 µM | TGI [4]: > 100 µM | GI50 [5]: 2.35 µM | TGI [5]: 10.8 µM | GI50 [6]: 13 µM | TGI [6]: 32 µM | GI50 [7]: 5.51 µM | TGI [7]: 31.9 µM | GI50 [9]: 2.98 µM | TGI [9]: 10.6 µM

N#CC(C#N)=C/C=C/c1ccccc1[N+](=O)[O-]
TGI [1]: > 10 µM | TGI [2]: > 10 µM | TGI [3]: > 10 µM | TGI [4]: > 10 µM | TGI [5]: > 10 µM | TGI [6]: > 10 µM | TGI [8]: > 10 µM | TGI [9]: > 10 µM | TGI [10]: > 10 µM

Cc1cc2nc3c(C(OC4OC(CO)C(O)C(O)C4O)C(O)CO)nn(-c4ccc(F)cc4)c3nc2cc1C (centres undefined)
TGI [2]: > 100 µM | TGI [3]: > 100 µM | TGI [4]: > 100 µM | TGI [5]: > 100 µM | TGI [6]: > 100 µM | TGI [7]: > 100 µM | TGI [8]: > 100 µM | TGI [10]: > 100 µM

c1ccc(-c2nc3ccccc3[nH]2)c(OCCCCCOc2ccccc2-c2nc3ccccc3[nH]2)c1
GI50 [1]: 18.1 µM | TGI [1]: 47.1 µM | GI50 [2]: 12.1 µM | TGI [2]: 44.1 µM | GI50 [3]: 4.14 µM | TGI [3]: 29.8 µM | GI50 [4]: 3.44 µM | TGI [4]: 23.2 µM | GI50 [5]: 5.58 µM | TGI [5]: 47.5 µM | GI50 [6]: 8.78 µM | TGI [6]: 47.4 µM | GI50 [7]: 20.2 µM | TGI [7]: 62.6 µM | GI50 [8]: 2.92 µM | TGI [8]: 8.97 µM | GI50 [9]: 6.07 µM | TGI [9]: 19.5 µM | GI50 [10]: 12.3 µM | TGI [10]: 44 µM

Cc1cn([C@H]2CN(O)C[C@@H](CO)O2)c(=O)[nH]c1=O
TGI [1]: > 100 µM | TGI [4]: > 100 µM | TGI [5]: > 100 µM | TGI [6]: > 100 µM | TGI [7]: > 100 µM | TGI [8]: > 100 µM | TGI [9]: > 100 µM

C=C(/C=C/C=C(\CO)CCC=C(C)C)[C@H]1CCC2([C@H](CCCO)/C(=C(/C)C=O)CC[C@]2(C)O)[C@H]1O (some centres undefined)
TGI [1]: > 100 µM | TGI [2]: > 100 µM | TGI [3]: > 100 µM | TGI [5]: > 100 µM | TGI [6]: > 100 µM | TGI [7]: > 100 µM | TGI [8]: > 100 µM | TGI [9]: > 100 µM | TGI [10]: > 100 µM

Cc1ccccc1NC(=O)C(=O)CC(=O)c1sc(-n2nc(-c3ccccc3)cc2-c2ccccc2)nc1C
TGI [1]: > 100 µM | TGI [2]: > 100 µM | TGI [3]: > 100 µM | TGI [4]: > 100 µM | TGI [5]: > 100 µM | TGI [6]: > 100 µM | TGI [7]: > 100 µM | TGI [8]: > 100 µM | TGI [10]: > 100 µM

COc1ccc(/C(C#N)=C2/O/C(=N/N)C(c3ccc(OC)c(OC)c3)C2=O)cc1OC (centres undefined)
TGI [1]: > 100 µM | TGI [2]: > 100 µM | TGI [3]: > 100 µM | TGI [4]: > 100 µM | TGI [5]: > 100 µM | TGI [6]: > 100 µM | TGI [9]: > 100 µM | TGI [10]: > 100 µM

COc1ccc(C2C(C(=O)O)=C(COC(C)=O)Oc3cc4c(cc32)OCO4)c(OC)c1 (centres undefined)
TGI [1]: > 100 µM | TGI [2]: > 100 µM | TGI [3]: > 100 µM | TGI [5]: > 100 µM | TGI [6]: > 100 µM | TGI [8]: > 100 µM | TGI [9]: > 100 µM | TGI [10]: > 100 µM

COc1ccc(N=C2C(=O)Nc3ccc(Br)cc32)cc1
TGI [2]: 58.1 µM | TGI [3]: 37.2 µM | TGI [4]: 57.2 µM | TGI [5]: 74.4 µM | TGI [7]: 58 µM | TGI [9]: 23.3 µM | TGI [10]: 43 µM

C=C(c1ccc(C(=O)NCCCn2ccnc2)cc1)c1cc2c(cc1C)C(C)(C)CCC2(C)C
GI50 [1]: 1.92 µM | TGI [1]: > 32 µM | GI50 [2]: 0.509 µM | TGI [2]: 6.8 µM | GI50 [4]: 3.83 µM | TGI [4]: > 100 µM | GI50 [5]: 2.65 µM | TGI [5]: > 100 µM | GI50 [6]: 2.46 µM | TGI [6]: 7.82 µM | GI50 [7]: 0.953 µM | TGI [7]: 12.7 µM | GI50 [8]: 4.1 µM | TGI [8]: 26 µM | GI50 [9]: 1.14 µM | TGI [9]: 2.43 µM | GI50 [10]: 3.2 µM | TGI [10]: 22.4 µM

O=C(Nc1c(Cl)cc([N+](=O)[O-])cc1Cl)C(=O)C(C(=O)c1ccncc1)C1OC(=O)c2ccccc21 (centres undefined)
TGI [1]: > 100 µM | TGI [2]: > 100 µM | TGI [3]: > 100 µM | TGI [4]: > 100 µM | TGI [5]: > 100 µM | TGI [6]: > 100 µM | TGI [7]: > 100 µM | TGI [8]: > 100 µM | TGI [10]: > 100 µM

COc1cc2c(c(OC)c1OC)-c1ccc(SC)c(=O)cc1C(CC(=O)Oc1ccccc1F)C2 (centres undefined)
TGI [1]: > 7.5 µM | TGI [2]: 0.0324 µM | TGI [3]: > 7.5 µM | TGI [4]: > 7.5 µM | TGI [5]: > 7.5 µM | TGI [6]: > 7.5 µM | TGI [7]: > 7.5 µM | TGI [8]: > 7.5 µM | TGI [10]: > 7.5 µM

O=C(Nc1ccc(-n2cc(-c3ccncc3)c(-c3ccc(Cl)c(O)c3)n2)cc1)c1ccc(Cl)c(Cl)c1
GI50 [1]: > 100 µM | TGI [1]: > 100 µM | GI50 [2]: 2.6 µM | TGI [2]: > 100 µM | GI50 [3]: 4.52 µM | TGI [3]: > 100 µM | GI50 [4]: > 100 µM | TGI [4]: > 100 µM | GI50 [5]: 4.02 µM | TGI [5]: > 100 µM | GI50 [6]: 3.92 µM | TGI [6]: > 100 µM | GI50 [7]: 10.2 µM | TGI [7]: > 100 µM | GI50 [8]: > 100 µM | TGI [8]: > 100 µM | GI50 [9]: 1.15 µM | TGI [9]: 2.43 µM

Cc1ccc(-n2cc(/C(N)=N/O)c3ccccc3c2=O)cc1
TGI [1]: > 100 µM | TGI [2]: > 100 µM | TGI [3]: > 100 µM | TGI [4]: > 100 µM | TGI [5]: > 100 µM | TGI [9]: > 100 µM | TGI [10]: > 100 µM

CC[C@]1(O)C[C@@H]2CN(CCc3c([nH]c4ccccc34)[C@@](C(=O)OC)(c3cc4c(cc3OC)N(C)[C@H]3[C@@](O)(C(=O)OC)[C@H](OC(=O)CCCBr)[C@]5(CC)C=CCN6CC[C@]43[C@@H]65)C2)C1
GI50 [1]: 0.0263 µM | TGI [1]: > 100 µM | GI50 [2]: < 0.01 µM | TGI [2]: > 100 µM | GI50 [3]: 0.0232 µM | TGI [3]: > 100 µM | GI50 [4]: 0.197 µM | TGI [4]: 17.5 µM | GI50 [5]: 0.026 µM | TGI [5]: > 100 µM | GI50 [6]: < 0.01 µM | TGI [6]: < 0.01 µM | GI50 [7]: < 0.023 µM | TGI [7]: > 100 µM | TGI [8]: 33.5 µM
